# Assay results as given in patent US20260256872A1, “PEPTIDE FOR TREATING DEMYELINATING DISEASES AND USE THEREOF” (KINE SCIENCES Co., Ltd., priority 2023, published 2026).
# Legend:
# [1] = test system: acquired peripheral nerve injury animal model; assay: Rotarod test in acquired peripheral nerve injury animal model; type: in vivo, C57BL/6 mice; conditions: weeks 3 and 6; all KINE-101-treated groups (10, 50, 100 mg/kg); vs Injury Ctr
# Description: Specifically, a uniform nerve injury model can be obtained by damaging the nerve emerging from the spinal cord at a predetermined intensity for a certain period of time, and since both the intensity and duration can be controlled, it is possible to establish a nerve injury model that persists for a desired period. For the disease induction groups, the boundary region between the gluteal muscle and the femoral muscle of the mouse was incised to expose the sciatic nerve. The nerve was then grasped and injured for a predetermined period using a surgical tool (MacJam) at one of three intensities (stages 1, 2, or 3; stage 3 for 3 seconds was used as the reference), after which the incision was sutured to establish an acquired peripheral nerve injury animal model. […]
# Demyelinating diseases are known to be accompanied by symptoms such as muscle weakness and impaired balance. […] Specifically, the phenotype of the experimental animals was analyzed using rotarod, grip strength, and tail suspension tests. […] Using a rotarod apparatus (ROTA ROD, LE8205, Panlab), the time during which the animal remained on the rotating rod was measured for 2 minutes and 30 seconds at a fixed speed of 8 rpm. For each evaluation, three trials were conducted, and the maximum duration among the trials was analyzed.
# [2] = test system: chronic inflammatory demyelinating polyneuropathy (CIDP) animal model; assay: Demyelination in peripheral nerve tissues (TEM), CIDP animal model; type: in vivo, Lewis rats; conditions: KINE-101 50 mg/kg I.V.; hind limb peripheral nerve
# Procedure: Female Lewis rats (7 weeks old) were obtained and acclimatized for one week. Thereafter, solution A was prepared by dissolving peripheral myelin PO protein (180-199) in 0.9% saline at a concentration of […], and solution B was prepared by dissolving Mycobacterium tuberculosis in Freund's incomplete adjuvant at a concentration of […]. A sterile 50 ml tube was placed in an ice box, and solutions A and B were mixed at a ratio of 1:1. The mixture was then homogenized using a homogenizer for 15 minutes to prepare an emulsion. The prepared emulsion was loaded into a 1 ml syringe, the syringe needle was replaced with a 25G needle, and the syringe was stored in an ice box containing ice until use. The emulsion (200 μL) was subcutaneously (S.C.) injected into the tail of the Lewis rats to induce the disease. […] From the day following disease induction, KINE-101 dissolved in DPBS was intravenously (I.V.) administered three times per week at doses of 1, 5, 25, and 50 mg/kg.
# Tissue cross-sections were then observed using a transmission electron microscope (TEM) to evaluate the degree of myelin loss. In addition, comparisons were made with the normal group (Normal) and the CIDP-induced group (EAN PO (180-199)).
# [3] = test system: chronic inflammatory demyelinating polyneuropathy (CIDP) animal model; assay: Clinical score in CIDP animal model (EAN P0(180-199)); type: in vivo, Lewis rats
# Procedure: Female Lewis rats (7 weeks old) were obtained and acclimatized for one week. Thereafter, solution A was prepared by dissolving peripheral myelin PO protein (180-199) in 0.9% saline at a concentration of […], and solution B was prepared by dissolving Mycobacterium tuberculosis in Freund's incomplete adjuvant at a concentration of […]. A sterile 50 ml tube was placed in an ice box, and solutions A and B were mixed at a ratio of 1:1. The mixture was then homogenized using a homogenizer for 15 minutes to prepare an emulsion. The prepared emulsion was loaded into a 1 ml syringe, the syringe needle was replaced with a 25G needle, and the syringe was stored in an ice box containing ice until use. The emulsion (200 μL) was subcutaneously (S.C.) injected into the tail of the Lewis rats to induce the disease. […]
# In order to examine the progression of CIDP following administration of KINE-101, the severity of CIDP over time after administration of KINE-101 to the CIDP animal model was evaluated and measured using a clinical score.
# Specifically, during administration of KINE-101 by the method described in Example <2-1>, the symptoms were evaluated on a scale of 0 to 5 according to the criteria shown in Table 3 below. […] The severity of CIDP was quantified by calculating the average value of the results evaluated for each individual.
# CIDP animal model [4] = assay: Clinical score in CIDP animal model (S-palmP0(180-199)), KINE-101 vs IVIg; type: in vivo, Lewis rats
# [5] = Body weight change in CIDP animal model (S-palmP0(180-199)); type: in vivo, Lewis rats
# Procedure: (§1) Specifically, male Lewis rats (7 weeks old) were obtained and acclimatized for one week. Thereafter, solution A was prepared by dissolving s-palm PO, in which palmitic acid is conjugated to cysteine at the 181st amino acid of peripheral myelin PO protein described in <Example 2>, in saline at a concentration of 2 mg/mL. Solution B was prepared by dissolving Mycobacterium tuberculosis in Freund's adjuvant at a concentration of 5 mg/mL. A sterile 25 mL tube was placed in an ice box, and solutions A and B were mixed at a ratio of 1:1 and homogenized for 15 minutes using a homogenizer to prepare an emulsion. The emulsion (200 μL) was then administered by subcutaneous injection at the base of the rat tail to induce the disease. […] The KINE-101 administration groups received KINE-101 dissolved in DPBS at doses of 6.25, 12.5, 25, and 37.5 mg/kg by intravenous injection (I.V.) three times per week for 15 days, starting the day after disease induction. The IVIg administration group received IVIg at a dose of 400 mg/kg once daily for 5 days starting the day after disease induction. The experiment was terminated on day 15 after disease induction.
# Specifically, body weight was measured during administration of KINE-101 or IVIg by the method described in Example <3-1>, and the change in body weight was calculated relative to the body weight before disease induction (Day 0).
# [6] = test system: acquired peripheral nerve injury animal model; assay: Histopathological examination of nerve tissues (toluidine blue, TEM), acquired peripheral nerve injury animal model; type: in vivo, C57BL/6 mice; conditions: for myelinated axons and unmyelinated fibers: vs acquired peripheral nerve injury group
# Description: (§2) Specifically, a uniform nerve injury model can be obtained by damaging the nerve emerging from the spinal cord at a predetermined intensity for a certain period of time, and since both the intensity and duration can be controlled, it is possible to establish a nerve injury model that persists for a desired period. For the disease induction groups, the boundary region between the gluteal muscle and the femoral muscle of the mouse was incised to expose the sciatic nerve. The nerve was then grasped and injured for a predetermined period using a surgical tool (MacJam) at one of three intensities (stages 1, 2, or 3; stage 3 for 3 seconds was used as the reference), after which the incision was sutured to establish an acquired peripheral nerve injury animal model. From the day following disease induction, KINE-101 dissolved in DPBS was administered intravenously (I.V.) at doses of 10, 50, and 100 mg/kg three times per week for a total of four weeks.
# Specifically, KINE-101 was administered to the acquired peripheral nerve injury animal model for four weeks according to the method described in Example <4-1>, and the experimental animals were sacrificed six weeks after the start of administration. Thereafter, peripheral nerve tissues of the hind limbs were isolated and fixed in a 4% paraformaldehyde solution containing 2.5% glutaraldehyde. After ethanol dehydration, the tissues were embedded in epoxy resin and semi-thin sections (1 μm) were prepared. The semi-thin sections were stained with toluidine blue for 5-10 seconds and observed under a light microscope. In addition, ultra-thin sections (65 nm) were prepared, and tissue cross-sections were observed using a transmission electron microscope (TEM) to examine abnormalities of myelin (demyelination, dysmyelination, and hypermyelination).
# Treg cells = assay: Treg cell proportion and activation in lymph nodes at nerve injury site (flow cytometry); type: in vivo, C57BL/6 mice
# Description: as §2
# Specifically, KINE-101 was administered to the acquired peripheral nerve injury animal model for four weeks according to the method described in Example <4-1>, and the experimental animals were sacrificed six weeks after the start of administration. Thereafter, immune cells were isolated from the lymph nodes at the nerve injury site of the experimental animals. The isolated immune cells were subjected to fluorescent staining for CD4 and Foxp3 proteins, and the proportion of Treg cells among CD4 T cells was determined by flow cytometry. In addition, fluorescent staining for the CTLA4 protein, which is an activation marker of Treg cells, was performed, and the level of CTLA4 expression in Treg cells was compared by flow cytometric analysis to evaluate the degree of activation.
# [7] = test system: acquired peripheral nerve injury animal model; assay: Nerve conduction studies in acquired peripheral nerve injury animal model; type: in vivo, C57BL/6 mice
# Procedure: (§3) Specifically, KINE-101 or IVIg was administered by the method described in Example <3-1>, and after completion of the experiment, the animals were anesthetized with 1.5% isoflurane and examined. The fur from the distal region of the hind limb to the upper region was removed, and nerve conduction studies for measuring motor and sensory nerves were performed using a Nicolet VikingQuest device as the electrophysiological examination instrument. For the nerve conduction study, a needle electrode was placed on the motor nerve or sensory nerve, and a reference electrode was placed on the gastrocnemius muscle. The stimulating cathode was positioned in the middle of the posterior thigh near the recording electrode, and stimulation was applied at both distal and proximal sites. Motor nerve conduction velocity (MNCV) and compound muscle action potential (CMAP) of the motor nerve, as well as sensory nerve conduction velocity (SNCV) and sensory nerve action potential (SNAP) of the sensory nerve, were measured.
# as §2
# Specifically, mice were anesthetized with 1.5% isoflurane at weeks 0, 3, and 6 after administration of KINE-101 according to the method described in Example <4-1>, and MNCV, CMAP, SNCV, and SNAP were measured by the same method described in Example <3-4> to determine whether motor nerves and sensory nerves were damaged.
# CIDP animal model [8] = assay: Nerve conduction studies (MNCV, CMAP, SNCV, SNAP) in CIDP animal model; type: in vivo, Lewis rats
# Procedure: as §1, §3
# [9] = week 3, KINE-101 10 mg/kg I.V. three times per week for four weeks
# [10] = week 3, KINE-101 50 mg/kg I.V. three times per week for four weeks
# [11] = week 6, KINE-101 50 mg/kg I.V. three times per week for four weeks
# [12] = weeks 3 and 6, KINE-101-treated groups (10, 50, 100 mg/kg)
# [13] = all KINE-101-treated groups (6.25-37.5 mg/kg I.V.), after day 15
# [14] = all KINE-101-treated groups, IVIg 400 mg/kg
sequence,measurement,setting,value
"PSPPSPPSP [KINE-101, trimeric polymer prepared using a PSP fragment (PSP monomer)]",muscle strength and balance (rotarod),[1],improved muscle strength and balance
same,"demyelination (degree of myelin loss, TEM)",[2],demyelination was suppressed similarly to that observed in the normal group
same,clinical score,[3]; KINE-101 50 mg/kg I.V. three times per week,lowest clinical score
same,clinical score (CIDP symptoms),"[3]; all KINE-101-treated groups (1, 5, 25, 50 mg/kg I.V. three times per week), vs CIDP-induced group",alleviation of symptoms after day 15
same,clinical score,CIDP animal model [4]; KINE-101 25 mg/kg I.V. three times per week,lowest clinical score
same,clinical score,"CIDP animal model [4]; all KINE-101-treated groups (6.25 mg/kg to 37.5 mg/kg I.V. three times per week), day 15 after disease induction",lower clinical scores on day 15 after disease induction compared with the negative control group
same,body weight improvement effect,[5]; KINE-101 12.5 mg/kg I.V.,most pronounced body weight improvement effect
same,body weight gain vs negative control group,[5]; KINE-101-treated groups (6.25-37.5 mg/kg I.V.),greater body weight gain compared with the negative control group
same,body weight vs before disease induction (Day 0),"[5]; KINE-101-treated groups, day 15 after disease induction",maintained significantly higher body weight than that before disease induction
same,myelinated axons and unmyelinated fibers,[6]; KINE-101 50 mg/kg,marked increase in myelinated axons and a decrease in unmyelinated fibers
same,myelinated axons and unmyelinated fibers,[6]; KINE-101 100 mg/kg,marked increase in myelinated axons and a decrease in unmyelinated fibers
same,myelination,"[6]; KINE-101-treated groups (10, 50, 100 mg/kg), six weeks after start of administration, vs Injury Ctr",improved myelination
same,number of large myelinated fibers and small unmyelinated fibers,"[6]; KINE-101-treated groups, six weeks after start of administration",an increase in the number of large myelinated fibers and a decrease in the number of small unmyelinated fibers
same,CTLA4 expression in Treg cells (activation marker),Treg cells; KINE-101 50 mg/kg,increased to a statistically significant level
same,proportion of Treg cells among CD4 T cells in lymph nodes at nerve injury site,Treg cells; KINE-101 50 mg/kg,increased to a statistically significant level
same,CTLA4 expression in Treg cells (activation marker),"Treg cells; KINE-101-treated groups (10, 50, 100 mg/kg)",increased
same,proportion of Treg cells among CD4 T cells in lymph nodes at nerve injury site,"Treg cells; KINE-101-treated groups (10, 50, 100 mg/kg), six weeks after start of administration",increased
same,CMAP,[7]; [9],11.0±2.3 mV
same,SNCV,[7]; [9],27.7±2.8 m/s
same,MNCV,[7]; [10],46.7±7.4 m/s
same,SNAP,[7]; [10],11.2±3.1 μV
same,SNCV,[7]; [10],27.6±2.2 m/s
same,SNCV,"[7]; week 3, KINE-101 100 mg/kg I.V. three times per week for four weeks",28.6±3.7 m/s
same,CMAP,[7]; [11],32.9±4.0 mV
same,MNCV,[7]; [11],63.9±7.6 m/s
same,SNAP,[7]; [11],12.3±2.9 μV
same,SNCV,[7]; [11],27.9±3.1 m/s
same,MNCV,"[7]; week 6, KINE-101 100 mg/kg I.V. three times per week for four weeks",59.0±4.5 m/s
same,MNCV,"[7]; week 6, KINE-101-treated groups (10, 50, 100 mg/kg)",increased
same,CMAP,[7]; [12],increased compared with those in the acquired peripheral nerve injury group
same,SNAP,[7]; [12],increased compared with those in the acquired peripheral nerve injury group
same,MNCV and CMAP,CIDP animal model [8]; KINE-101 12.5 mg/kg I.V.,most pronounced effect
same,SNCV and SNAP,CIDP animal model [8]; KINE-101 12.5 mg/kg I.V.,most pronounced effect
same,compound muscle action potential (CMAP),CIDP animal model [8]; [13],higher MNCV and CMAP values compared with the negative control group
same,motor nerve conduction velocity (MNCV),CIDP animal model [8]; [13],higher MNCV and CMAP values compared with the negative control group
same,sensory nerve action potential (SNAP),CIDP animal model [8]; [13],higher SNCV and SNAP values compared with the negative control group
same,sensory nerve conduction velocity (SNCV),CIDP animal model [8]; [13],higher SNCV and SNAP values compared with the negative control group
same,MNCV and CMAP vs IVIg-treated group,CIDP animal model [8]; [14],effects similar to or superior to those of the IVIg-treated group
same,SNCV and SNAP vs IVIg-treated group,CIDP animal model [8]; [14],effects similar to those of the IVIg-treated group
